The subject of assay [1] is hyperlipidemia rats. Put plainly: Effect on liver function (serum ALT, AST) of high-fat feed rats. It is filed as in vivo, SD rats. Particulars: positive drug 1.5 mg/Kg-d, 4 weeks, X ± S, n = 10. From the text: 1. Experimental materials: 150 healthy SD male and female rats in clean grade, with body weight of (150.2±8.9) g.
2. Feed: general feed, high-fat feed formula: 72.7% of basic feed, 2% of cholesterol, 5% of egg yolk powder, 10% of lard, 0.2% of propylthiouracil, 10% of sucrose and 0.1% of sodium cholate.
3. Grouping and administration of animals: the purchased experimental rats were adaptively fed for 1 week in a lab, original numbers were assigned according to the weighing order, and the rats were randomly divided into a blank control group, a model control group, a pharmaceutical composition (respectively prepared as in Examples 3, 6, 8 and 10, and added with 50 ml of water per 10 g to be dissolved to obtain a solution) low-dose group (5 ml/kg·d), a middle-dose group (10 ml/kg-d), a high-dose group (15 ml/kg·d), a positive drug (simvastatin) control group (1.5 mg/kg, volume: 10 ml/kg) by looking up a random number table, and there were 10 rats in each group. […]
4. […] The rats were anesthetized with 3% pentobarbital sodium, blood was collected from the abdominal aorta, serum was centrifugally separated, and the serum total cholesterol (TC), triglyceride (TG), high-density lipoprotein cholesterol (HDL-C), low-density lipoprotein cholesterol (LDL-C), alanine aminotransferase (ALT) and aspartate aminotransferase (AST) values were measured. […]

For assay [2], the system named is hyperlipidemia rats. Kind of assay: Hypolipidemic animal experiment: blood lipid levels in high-fat feed rats. Format: in vivo, SD rats. Particulars: serum, positive drug 1.5 mg/kg intragastric, 4 weeks, X ± S, n = 10. How it is done:
3. […] From the day of experiment, the blank control group and the model control group were intragastrically administered with normal saline (volume: 10 ml/kg), the administration group was intragastrically administered with corresponding drugs once a day, the body weight was weighed once a week, and the dosage was adjusted according to the body weight. The blank control group was fed with the normal feed, the other groups was fed with high-fat feed. During the experiment, free feeding, free drinking, continuous molding and drug administration for prevention were carried out for 4 weeks.
4. Observation indexes: after the last administration, the rats fasted for 12 h without fasting water. The rats were anesthetized with 3% pentobarbital sodium, blood was collected from the abdominal aorta, serum was centrifugally separated, and the serum total cholesterol (TC), triglyceride (TG), high-density lipoprotein cholesterol (HDL-C), low-density lipoprotein cholesterol (LDL-C), alanine aminotransferase (ALT) and aspartate aminotransferase (AST) values were measured.

In the assay on hyperlipidemia rats [1], `CCC(C)(C)C(=O)O[C@H]1C[C@@H](C)C=C2C=C[C@H](C)[C@H](CC[C@@H]3C[C@@H](O)CC(=O)O3)[C@H]21` [Positive drug, simvastatin] had an ALT of 45.85 ± 5.21 U/L and an AST of 22.32 ± 7.56 U/L. In the assay with hyperlipidemia rats [2], the HDL-C came out at 1.23 ± 0.17 mmol/L, the LDL-C worked out at 1.68 ± 1.91 mmol/L, the TC worked out at 8.42 ± 4.79 mmol/L and the TG is 0.49 ± 0.18 mmol/L.

(Values after patent US20180028543A1, “HYPOLIPIDEMIC COMPOSITION AND USE THEREOF” (priority 2014, published 2018).)
